How the values were obtained:
Format in all cases: cell-based
[1] = target: T1, 5HT2A (Homo sapiens, UniProt P28223); experiment: Beta-arrestin recruitment assay (Tango technology, antagonist mode); parameters: engineered protease cleavage site followed by tethered transcription factor (C); conditions: read-out: 5HT2A (pIC50) Beta-arrestin (converted)
Source text: Beta-Arrestin Recruitment Assay:
Detecting GPCR Signaling Using the Tango Technology
GPCR signaling through beta-arrestin was detected by the Tango Technology at Thermofisher. This technology is based upon the interaction of intracellular beta-arrestin proteins and the target receptor. Upon ligand binding to the target receptor, the protease tagged arrestin is stimulated and recruited to the engineered protease site on the C-terminus of the GPCR, which triggers release of the tethered transcription factor. The free transcription factor then enters the nucleus and stimulates the beta-lactamase (bla) activity.
Test compounds are received at 1000× (or greater) of the desired starting concentration in 100% DMSO. The 1000× test compounds are serially diluted (10 point […] increments) in 100% DMSO.
Antagonist Assay Protocol:
An Agonist assay screen (see above) is run to obtain the EC80 concentration of the known activator to add in step 3.
1. 32 μL of cells diluted in Assay Media to appropriate cell density are added to the assay plate. If needed, cells are incubated at 37° C./5% CO2 for 6 or 16-24 hours (depending upon cell line specifics) before compound is added.
2. 40 nL of 1000× compound or known antagonist titration plus 4 μL of Assay Media is added to the cells in the assay plate and incubated for 30 minutes at 37° C./5% CO2 in a humidified incubator.
3. 4 μL of the 10×EC80 concentration of agonist, as determined in an Agonist assay, is added to all wells containing test compound and known inhibitor to bring the final assay volume to 40 μL.
4. 4 μL of Assay Media is added to remaining control wells to bring the volume up to 40 μL.
5. The assay plate is incubated for 5 or 16 hours (depending upon cell line specifics) at 37° C./5% CO2 in a humidified incubator.
6. 8 μL of the Substrate Loading Solution is added to the assay plate.
7. The assay plate is incubated for 2 hours at room temperature, in the dark.
8. The assay plate is read on a fluorescence plate reader (Tecan Safire2) and the data is analyzed.
SelectScreen Cell-Based GPCR Profiling Service uses XLfit from IDBS. The dose response curve is curve fit to model number 205 (sigmoidal dose-response model). Custom logic was built in-house for the data analysis tool to address the different compound characteristics that can be observed with functional assays. Using this logic the relative EC50/IC50 value for each given compound is provided.

[2] = target: T2, hERG channel (Homo sapiens, UniProt Q12809); experiment: hERG assay, whole cell recordings in CHO cells (AVIVA); conditions: CHO cells stably expressing hERG, pH 7.4
T2 construct: host or cells: CHO cells, stably transfected
How it was run: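 Whole-cell voltage clamp of CHO cells stably expressing hERG, held at −80 mV; steps to +20 mV for 5 s, then −50 mV for 5 s, with tail current measured against a −50 mV baseline, every 12 s. Compounds applied in 4 additions until steady state (max 12 min), vs 0.1% DMSO vehicle baseline.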

[3] = target: T1, 5HT2A; experiment: Receptor Selection and Amplification (R-SAT) functional assay; parameters: expressed in transfected cells; host or cells: NIH3T3 cells, pSI mammalian expression vector; conditions: NIH3T3 cells; Ki from IC50 by Cheng and Prussoff; read-out: 5-HT2a (pKi) (R-SAT) (converted)
Source text: Receptor Selection and Amplification (R-SAT) Assays. […] The IC50 determined in the RSAT assay was converted into a Ki value using the method of Cheng and Prussoff, Biochem Pharmacol., 1973 Dec. 1; 22(23):3099-108. pKi is the negative of the log(Ki).

T1 sequence (P28223 whole entry): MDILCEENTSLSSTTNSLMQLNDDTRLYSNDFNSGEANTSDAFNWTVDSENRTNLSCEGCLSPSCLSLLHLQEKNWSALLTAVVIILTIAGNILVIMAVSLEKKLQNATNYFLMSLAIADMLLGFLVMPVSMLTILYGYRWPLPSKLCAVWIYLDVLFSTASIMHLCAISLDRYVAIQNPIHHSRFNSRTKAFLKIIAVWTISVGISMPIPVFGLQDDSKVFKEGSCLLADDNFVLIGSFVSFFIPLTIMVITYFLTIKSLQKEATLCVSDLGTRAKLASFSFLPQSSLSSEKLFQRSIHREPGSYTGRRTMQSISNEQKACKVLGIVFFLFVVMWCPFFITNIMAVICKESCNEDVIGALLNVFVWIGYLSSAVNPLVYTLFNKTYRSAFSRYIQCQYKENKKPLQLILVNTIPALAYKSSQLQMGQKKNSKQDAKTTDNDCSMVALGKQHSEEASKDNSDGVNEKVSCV
T2 sequence (Q12809 whole entry): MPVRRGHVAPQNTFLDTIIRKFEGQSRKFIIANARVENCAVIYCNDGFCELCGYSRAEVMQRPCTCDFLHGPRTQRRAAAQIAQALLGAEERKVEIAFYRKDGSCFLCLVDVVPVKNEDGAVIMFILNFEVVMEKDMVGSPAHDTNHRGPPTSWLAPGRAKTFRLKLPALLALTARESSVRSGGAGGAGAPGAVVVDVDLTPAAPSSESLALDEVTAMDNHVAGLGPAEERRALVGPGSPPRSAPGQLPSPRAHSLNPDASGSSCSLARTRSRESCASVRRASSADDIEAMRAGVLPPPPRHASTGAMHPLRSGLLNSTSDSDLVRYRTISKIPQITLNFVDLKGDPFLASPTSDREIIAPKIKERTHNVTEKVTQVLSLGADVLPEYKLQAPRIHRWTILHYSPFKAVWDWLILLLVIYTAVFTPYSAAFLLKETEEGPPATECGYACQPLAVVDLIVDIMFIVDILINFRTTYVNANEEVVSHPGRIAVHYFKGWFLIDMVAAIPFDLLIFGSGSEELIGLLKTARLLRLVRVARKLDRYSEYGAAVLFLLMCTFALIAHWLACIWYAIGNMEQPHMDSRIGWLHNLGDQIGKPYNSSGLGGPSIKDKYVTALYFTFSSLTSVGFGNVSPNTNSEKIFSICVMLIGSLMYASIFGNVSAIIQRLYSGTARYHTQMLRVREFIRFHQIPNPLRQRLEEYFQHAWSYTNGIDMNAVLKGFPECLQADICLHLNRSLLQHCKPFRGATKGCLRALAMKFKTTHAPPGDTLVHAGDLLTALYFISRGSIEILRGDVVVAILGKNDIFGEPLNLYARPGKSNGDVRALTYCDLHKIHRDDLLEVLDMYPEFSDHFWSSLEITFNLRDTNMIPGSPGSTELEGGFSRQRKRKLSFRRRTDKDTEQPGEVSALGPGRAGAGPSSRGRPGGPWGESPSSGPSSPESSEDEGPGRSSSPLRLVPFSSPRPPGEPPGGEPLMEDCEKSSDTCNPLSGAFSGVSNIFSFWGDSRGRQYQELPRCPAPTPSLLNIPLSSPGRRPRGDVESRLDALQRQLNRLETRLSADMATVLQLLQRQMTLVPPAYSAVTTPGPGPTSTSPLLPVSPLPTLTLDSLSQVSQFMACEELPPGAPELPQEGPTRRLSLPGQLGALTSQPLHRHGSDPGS

IC50 [1] [nM]	Ki [3] [nM]	SMILES	inhibition at 1 µM [2] [%]
200	–	Cc1c[nH]c2ccc(CNC(=O)N(Cc3ccc(F)cc3F)C3CCN(C)CC3)cc12 [Example 21]	–
15.8	–	CN1CCC(N(Cc2ccc(F)cc2F)C(=O)NCc2ccc3c(c2)CCN3C)CC1 [Example 23]	13
126	–	Cc1noc2cc(CNC(=O)N(Cc3ccc(F)cc3F)C3CCN(C)CC3)ccc12 [Example 24]	10
100	–	Cc1cc2cc(CNC(=O)N(Cc3ccc(F)cc3F)C3CCN(C)CC3)ccc2n1C [Example 25]	–
79.4	–	CN1CCC(N(Cc2ccc(F)cc2F)C(=O)NCc2ccc3ncccc3c2)CC1 [Example 27]	–
316	–	CN1CCC(N(Cc2ccc(F)cc2F)C(=O)NCc2ccc3c(c2)OC(C)(C)C=C3)CC1 [Example 34]	–
200	–	CN1CCC(N(Cc2ccc(F)cc2F)C(=O)NCc2ccc3cnn(C)c3c2)CC1 [Example 35]	–
25.1	–	Cc1cc2cc(CNC(=O)N(Cc3ccc(F)cc3F)C3CCN(C)CC3)ccc2[nH]1 [Example 36]	29
631	–	CN1CCC(N(Cc2ccc(F)cc2F)C(=O)NCc2ccc3c(c2)CCS3(=O)=O)CC1 [Example 37]	8
3.98	–	CN1CCC(N(Cc2ccc(F)cc2F)C(=O)NCc2ccc3c(c2)CCC3)CC1 [Example 38]	–
15.8	–	CN1CCC(N(Cc2ccc(F)cc2F)C(=O)NCc2ccc3ncsc3c2)CC1 [Example 39]	21
251	–	Cc1n[nH]c2ccc(CNC(=O)N(Cc3ccc(F)cc3F)C3CCN(C)CC3)cc12 [Example 42]	–
126	–	CC(C)Oc1ccc(CNC(=O)N(Cc2ccc(C#N)cc2F)C2CCN(C)CC2)cc1 [Example 43]	42
158	–	CC(C)Oc1ccc(CNC(=O)N(Cc2ccc([N+](=O)[O-])cc2F)C2CCN(C)CC2)cc1 [Example 44]	70
3.98	–	O=C(O)C(F)(F)F.[2H]C([2H])([2H])C(N1CCC(N(Cc2ccc(F)cc2F)C(=O)NCc2ccc(OC(C)C)cc2)CC1)C([2H])([2H])[2H] [Example 75, 1-[(2,4-difluorophenyl)methyl]-1-{1-[(1,1,1,3,3,3-^2H6)propan-2-yl]piperidin-4-yl}-3-{[4-(propan-2-yloxy)phenyl]methyl}urea; Trifluoroacetic Acid]	–
–	0.631	CN1CCC(N(Cc2ccc(F)cc2F)C(=O)NCc2ccc(OCC3CC3)cc2)CC1 [Example 141, 3-{[4-(cyclopropylmethoxy)phenyl]methyl}-1-[(2,4-difluorophenyl)methyl]-1-(1-methylpiperidin-4-yl)urea]	42
–	1	CC(C)Oc1ccc(CNC(=O)N(Cc2ccc(F)cc2F)C2CCNCC2)cc1 [Example 142, 1-[(2,4-difluorophenyl)methyl]-1-(piperidin-4-yl)-3-{[4-(propan-2-yloxy)phenyl]methyl}urea]	8
–	0.501	CC(C)Oc1ccc(CNC(=O)N(Cc2ccc(F)cc2F)C2CCN(C)CC2)cc1F [Example 143, 1-[(2,4-difluorophenyl)methyl]-3-{[3-fluoro-4-(propan-2-yloxy)phenyl]methyl}-1-(1-methylpiperidin-4-yl)urea; Trifluoroacetic Acid]	41
–	1	CC(C)Oc1ccc(CNC(=O)N(Cc2ccc(F)cc2F)C2CCN(C)CC2)c(F)c1 [Example 144, 1-[(2,4-difluorophenyl)methyl]-3-{[2-fluoro-4-(propan-2-yloxy)phenyl]methyl}-1-(1-methylpiperidin-4-yl)urea; Trifluoroacetic Acid]	37
–	1.58	Cc1cc(CNC(=O)N(Cc2ccc(F)cc2F)C2CCN(C)CC2)ccc1OC(C)C [Example 145, 1-[(2,4-difluorophenyl)methyl]-3-{[3-methyl-4-(propan-2-yloxy)phenyl]methyl}-1-(1-methylpiperidin-4-yl)urea; Trifluoroacetic Acid]	39
–	2	C#CCOc1ccc(CNC(=O)N(Cc2ccc(F)cc2F)C2CCN(C)CC2)cc1 [Example 148, 1-[(2,4-difluorophenyl)methyl]-1-(1-methylpiperidin-4-yl)-3-{[4-(prop-2-yn-1-yloxy)phenyl]methyl}urea; Trifluoroacetic Acid]	33
–	2	CN1CCC(N(Cc2ccc(F)cc2F)C(=O)NCc2ccc(OCCCF)cc2)CC1 [Example 151, 3-[(2,4-difluorophenyl)methyl]-1-{[4-(3-fluoropropoxy)phenyl]methyl}-3-(1-methylpiperidin-4-yl)urea; Trifluoroacetic Acid]	16
–	2.51	CN1CCC(N(Cc2ccc(F)cc2F)C(=O)NCc2ccc(C(C)(F)F)cc2)CC1 [Example 152, 1-{[4-(1,1-difluoroethyl)phenyl]methyl}-3-[(2,4-difluorophenyl)methyl]-3-(1-methylpiperidin-4-yl)urea; Trifluoroacetic Acid]	38
–	1.58	CN1CCC(N(Cc2ccc(F)cc2F)C(=O)NCc2ccc(OC(CF)CF)cc2)CC1 [Example 153, 3-[(2,4-difluorophenyl)methyl]-1-({4-[(1,3-difluoropropan-2-yl)oxy]phenyl}methyl)-3-(1-methylpiperidin-4-yl)urea; Trifluoroacetic Acid]	29
–	1.26	CN1CCC(N(Cc2ccc(F)cc2F)C(=O)NCc2ccc(OCC(F)F)cc2)CC1 [Example 154, 3-{[4-(2,2-difluoroethoxy)phenyl]methyl}-1-[(2,4-difluorophenyl)methyl]-1-(1-methylpiperidin-4-yl)urea; Trifluoroacetic Acid]	23
–	0.158	CN1CCC(N(Cc2ccc(F)cc2F)C(=O)NCc2ccc3c(c2)C=CC(C)(C)O3)CC1 [Example 155, 1-[(2,4-difluorophenyl)methyl]-3-[(2,2-dimethyl-2H-chromen-6-yl)methyl]-1-(1-methylpiperidin-4-yl)urea; Trifluoroacetic Acid]	47
–	0.631	O=C(NCc1ccc(OC2CC2)cc1)N(Cc1ccc(F)cc1F)C1CCNCC1 [Example 157, 1-[(4-cyclopropoxyphenyl)methyl]-3-[(2,4-difluorophenyl)methyl]-3-(piperidin-4-yl)urea; Trifluoroacetic Acid]	20
–	0.794	CC1(C)Cc2cc(CNC(=O)N(Cc3ccc(F)cc3F)C3CCNCC3)ccc2O1 [Example 158, 1-[(2,4-difluorophenyl)methyl]-3-[(2,2-dimethyl-2,3-dihydro-1-benzofuran-5-yl)methyl]-1-(piperidin-4-yl)urea; Trifluoroacetic Acid]	8

SMILES	IC50 [1] [nM]	Ki [3] [nM]	inhibition at 1 µM [2] [%]
CC(C)(C)Oc1ccc(CNC(=O)N(Cc2ccc(F)cc2F)C2CCNCC2)cc1 [Example 149, 3-{[4-(tert-butoxy)phenyl]methyl}-1-[(2,4-difluorophenyl)methyl]-1-(piperidin-4-yl)urea; Trifluoroacetic Acid]	–	1	40

Source: US12139477B2, “Compounds, salts thereof and methods for treatment of diseases” (ACADIA PHARMACEUTICALS INC., priority 2017, dated 2024)
